{
  "source": "patent US10888120B2",
  "about": "“Non-tobacco nicotine containing article” (Philip Morris Products S.A., priority 2013, dated 2021)",
  "origin": "cited, not measured here",
  "settings": "\"experienced\" ENDS users (using ENDS for about 1 year)",
  "data": [
    {"smiles": "CN1CCCC1c1cccnc1", "note": "(stereo not shown) [nicotine]", "values": [
      {"measurement": "plasma nicotine concentration (Cmax)", "value": 10.3, "unit": "ng/mL"}
    ]}
  ]
}
